Several values for one entry are separate records, joined by “and”; a condition that tells them apart may be missing. Equal values may be shown once.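 In this assay, cells in 96-well plates receive the compound at five concentrations for 48 hours. Endpoints are linearly interpolated between the surrounding concentrations. GI50 is the concentration that inhibits growth by half. TGI: concentration producing complete growth inhibition.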 Non-standard residues stand in square brackets, D forms with d. Residues, ends and D or L forms follow the SMILES beside them. *: point of attachment. ONb = O=[N+]([O-])c1ccc(CO*)cc1; AllylGly = C=CC[CH](N)C(=O)O; Boc = CC(C)(C)OC(=O)*
Assays:
Assay in all cases: NCI anticancer screen, dose series, 48 h
CCRF-CEM leukemia = tested on: CCRF-CEM leukemia
COLO 205 colon = tested on: COLO 205 colon
HL-60(TB) leukemia = tested on: HL-60(TB) leukemia
LOX IMVI melanoma = tested on: LOX IMVI melanoma
M14 melanoma = tested on: M14 melanoma
OVCAR-3 ovarian = tested on: OVCAR-3 ovarian
SN12C renal = tested on: SN12C renal
SR leukemia = tested on: SR leukemia
UACC-257 melanoma = tested on: UACC-257 melanoma
UACC-62 melanoma = tested on: UACC-62 melanoma

| Compound | GI50 (CCRF-CEM leukemia) | TGI (CCRF-CEM leukemia) | GI50 (COLO 205 colon) | TGI (COLO 205 colon) | GI50 (HL-60(TB) leukemia) | TGI (HL-60(TB) leukemia) | GI50 (LOX IMVI melanoma) | TGI (LOX IMVI melanoma) | GI50 (M14 melanoma) | TGI (M14 melanoma) | GI50 (OVCAR-3 ovarian) | GI50 (SN12C renal) | TGI (SN12C renal) | GI50 (SR leukemia) | TGI (SR leukemia) | GI50 (UACC-257 melanoma) | TGI (UACC-257 melanoma) | GI50 (UACC-62 melanoma) | TGI (UACC-62 melanoma) | TGI (OVCAR-3 ovarian) |
| --- | --- | --- | --- | --- | --- | --- | --- | --- | --- | --- | --- | --- | --- | --- | --- | --- | --- | --- | --- | --- |
| C[C@@H]1C[C@@H](O)[C@]2(O)O[C@@H]3C[C@@]4(C=O)[C@@H](CC[C@@H]5[C@@H]4CC[C@]4(C)[C@@H](C6=CC(=O)OC6)CC[C@]54O)C[C@H]3O[C@@H]2O1 | 0.005 µM | 0.0391 µM and 0.0223 µM | 0.108 µM and 0.025 µM | 0.0826 µM and 0.277 µM and 0.0918 µM | 0.015 µM and 0.00692 µM | 0.0285 µM and 0.0322 µM and 0.0169 µM | 0.0472 µM | 0.0624 µM and 0.165 µM and 0.0884 µM | 0.0891 µM and 0.0324 µM | 0.074 µM and 0.232 µM and 0.2 µM | 0.0241 µM | 0.005 µM | 0.0897 µM and 0.144 µM and 0.0759 µM | 0.013 µM | 0.0128 µM and 0.0317 µM | 0.0711 µM and 0.0291 µM | 0.118 µM and 0.266 µM and 0.122 µM | 0.0515 µM and 0.0216 µM | 0.0465 µM and 0.213 µM and 0.0895 µM |  |
| O=C(CCCCCCSc1nc(-c2ccccc2)cc(-c2ccc(Cl)cc2)n1)NO | 0.629 µM | 6.49 µM | 2.38 µM | 5.76 µM | 2.16 µM | 4.84 µM | 2.06 µM | 4.66 µM | 1.95 µM | 6.53 µM | 1.96 µM | 2.14 µM | 6.35 µM | 0.416 µM | 4.67 µM | 2.67 µM | 11.4 µM | 1.37 µM | 3.5 µM | 6.86 µM |
| COc1ccc(C(=O)/C(Br)=C/C(=O)O)cc1 | 3.22 µM and 9.43 µM | 61 µM and 81.7 µM | 15.1 µM | 34.4 µM and 54.2 µM | 19.1 µM | 95.7 µM and 128 µM | 18.1 µM | 53.2 µM and 53 µM | 52.9 µM | 79.3 µM and 120 µM | 35.6 µM and 22.7 µM | 53.7 µM | 228 µM and 183 µM | 19.1 µM | > 86 µM and 321 µM | 21.9 µM | 74.4 µM and 85.1 µM | 12.3 µM | 45.3 µM and 32.3 µM | 133 µM and 116 µM |
| CCc1cccc(C(C)C)c1NC(=O)C(=O)C(Cc1nc2ccccc2[nH]c1=O)C(=O)OC (configuration not stated) |  | > 100 µM |  | > 100 µM |  | > 100 µM |  | > 100 µM |  | > 100 µM |  |  | > 100 µM |  | > 100 µM |  | > 100 µM |  | > 100 µM | > 100 µM |
| O=C(Nc1ccc(N2CCNCC2)cc1)c1[nH]ncc1Nc1ncnc2sc3c(c12)CCC3 | 0.222 µM | 1.13 µM | 0.124 µM | 1.31 µM | 1.2 µM | 3.28 µM | 0.199 µM | 1.8 µM | 0.146 µM | 1.64 µM | 0.256 µM | 0.412 µM | 1.84 µM | 0.0638 µM |  | 0.478 µM | 2.43 µM | 1.07 µM | 2.31 µM | 1.67 µM |
| C=CCn1c2c(c3ccccc3c1=O)C(=O)c1ccccc1-2 |  | > 100 µM |  | > 100 µM |  | > 100 µM |  | > 100 µM |  | > 100 µM |  |  | > 100 µM |  | > 100 µM |  | > 100 µM |  | > 100 µM | > 100 µM |
| COc1cc(/C(C#N)=C/c2ccc3c(c2OC)OCO3)cc2c1OCO2 | 0.0601 µM | 4.62 µM | 0.0941 µM | 3.14 µM | 0.0314 µM | 0.922 µM | 0.07 µM | 20.3 µM | 0.0477 µM | 7.81 µM | 0.0272 µM | 0.695 µM | > 100 µM | 0.0244 µM | 5.37 µM | 0.794 µM | > 100 µM | 0.0531 µM | 22.3 µM | 0.0774 µM |
| Cc1ncc(CN=Cc2ccc(Cl)cc2)c(N)n1 |  | > 100 µM |  | > 100 µM |  | > 100 µM |  | > 100 µM |  | > 100 µM |  |  | > 100 µM |  | > 100 µM |  | > 100 µM |  | > 100 µM | > 100 µM |
| CC(=O)Nc1ccc2c(c1)c(C1=C(c3cn(C)c4ccccc34)C(=O)NC1=O)cn2C | 0.991 µM | > 25 µM | 1.3 µM | > 25 µM | 0.913 µM | 4.9 µM | 1.63 µM | > 25 µM | 1.5 µM | > 25 µM | 0.723 µM | 1.66 µM | > 25 µM | 0.675 µM | > 17 µM | > 21.6 µM | > 25 µM | 1.15 µM | > 25 µM | 2.16 µM |
| O=C1CC(O)C=C1Nc1ccc(Cl)cc1 (configuration not stated) |  | > 100 µM |  | 22.3 µM |  | 95.6 µM |  | > 100 µM |  | > 100 µM |  |  | > 100 µM |  | 90.9 µM |  | > 100 µM |  | 5.14 µM | > 100 µM |
| Cc1nc2c(nc1C)C(=O)c1cc(O)ccc1C2=O |  | > 100 µM |  | 45.2 µM |  | > 67.3 µM |  | > 100 µM |  | > 100 µM |  |  | > 100 µM |  | > 100 µM |  | > 78 µM |  | 53.5 µM | > 100 µM |
| C=CCC(NC(=O)OC(C)(C)C)C(=O)NC(CCC(=O)OCc1ccc([N+](=O)[O-])cc1)C(N)=O (configuration not stated) (Boc-[AllylGly]-Glu(ONb)-NH2; configuration not given here) | 31.8 µg/mL |  | 22.9 µg/mL | 53.1 µg/mL | 53.1 µg/mL |  | 49 µg/mL |  | 33 µg/mL |  | 26.3 µg/mL | 57.5 µg/mL |  | 47.8 µg/mL |  | 16.2 µg/mL | 31.7 µg/mL | 19.5 µg/mL | 38.9 µg/mL | 90.1 µg/mL |
| O=[N+]([O-])C1C(c2ccccc2)C12c1ccccc1-c1ccccc12 (configuration not stated) | 0.318 µM | 4.22 µM | 1.85 µM | 10.9 µM | 2.12 µM | > 100 µM | 0.416 µM | 2.47 µM | 0.789 µM | 23.7 µM | 0.783 µM | 1.67 µM | 26 µM | 0.348 µM | 4.22 µM | 6.38 µM | 51.2 µM | 0.544 µM | 15.6 µM | 3.59 µM |
| COc1cc([C@H]2c3cc4c(cc3O[C@@]3(O)COC(=O)[C@@H]23)OCO4)cc(OC)c1OC |  | > 100 µM |  | > 100 µM |  | > 100 µM |  | > 100 µM |  | > 100 µM |  |  | > 100 µM |  | > 100 µM |  | > 100 µM |  | > 100 µM | > 100 µM |
| C=C1CC2(OC1=O)C(=O)N(CCCCCCCN1C(=O)C3(CC(=C)C(=O)O3)c3ccccc31)c1ccccc12 (configuration not stated) | 0.896 µM | 6.42 µM | 1.38 µM | 5.58 µM | 0.992 µM | 3.21 µM | 0.763 µM | 1.54 µM | 1.45 µM | 5.6 µM | 1.27 µM | 1.08 µM | 2.72 µM | 0.475 µM | 3.58 µM | 2.14 µM | 8.76 µM | 1.27 µM | 4.82 µM | 4.07 µM |
| COc1cc(-c2nn(-c3ccc(NC(=O)c4ccc(Cl)c(Cl)c4)cc3)cc2-c2ccncc2)ccc1Cl | 4.56 µM | > 100 µM | 3.62 µM | > 100 µM | 8.03 µM | > 100 µM | 2.76 µM | > 100 µM | 22.4 µM | > 100 µM | > 100 µM | 5.11 µM | > 100 µM | 18.7 µM | > 100 µM | > 100 µM | > 100 µM | 6.34 µM | > 100 µM | > 100 µM |
| N#CCC(=O)Nc1cccc(C(F)(F)F)c1 |  | > 100 µM |  | > 100 µM |  | > 100 µM |  | > 100 µM |  | > 100 µM |  |  | > 100 µM |  | > 100 µM |  | > 100 µM |  | > 100 µM | > 100 µM |
| CC1=C(C(=O)Nc2c(C)cccc2C)C(c2ccc3c(c2)OCO3)C(C(=O)Nc2c(C)cccc2C)=C(C)N1 |  | 41.9 µM |  | 47.1 µM |  | 56.1 µM |  | 28.1 µM |  | 33.9 µM |  |  | 32.7 µM |  | 90.9 µM |  | 32.3 µM |  | 10.9 µM | 98.6 µM |
| CCOC(=O)c1ccc(NC(=O)N2CC(C)OC(C)C2)cc1 (configuration not stated) | > 100 µM | > 100 µM | > 100 µM | > 100 µM | > 100 µM | > 100 µM | > 100 µM | > 100 µM | > 100 µM | > 100 µM | > 100 µM | > 100 µM | > 100 µM | > 100 µM | > 100 µM | > 100 µM | > 100 µM | > 100 µM | > 100 µM | > 100 µM |
| CCOc1cc2ncc(C#N)c(Nc3ccc(OCc4cccc(F)c4)c(Cl)c3)c2cc1NC(=O)CC1CCSS1 (configuration not stated) | 0.146 µM | > 25 µM | 2.39 µM | > 25 µM | 3.48 µM | > 25 µM | 0.447 µM | 1.01 µM | 0.45 µM | 0.915 µM | 1.09 µM | > 6.3 µM | > 25 µM | 0.68 µM | > 25 µM | 24.5 µM | > 25 µM | > 25 µM | > 25 µM | 9.3 µM |
